Laboratory results as given in patent US11040981B2, “Pyrrolotriazine compounds and methods of inhibiting TAM kinases” (Syros Pharmaceuticals, Inc., priority 2017, dated 2021).

What was measured:
[1] = target: T1, AXL (Homo sapiens, UniProt P30530); assay: TR-FRET kinase activity assay, AXL; assay type: biochemical; conditions: ATP at Km, 60 minutes
T1 sequence (P30530 26-894): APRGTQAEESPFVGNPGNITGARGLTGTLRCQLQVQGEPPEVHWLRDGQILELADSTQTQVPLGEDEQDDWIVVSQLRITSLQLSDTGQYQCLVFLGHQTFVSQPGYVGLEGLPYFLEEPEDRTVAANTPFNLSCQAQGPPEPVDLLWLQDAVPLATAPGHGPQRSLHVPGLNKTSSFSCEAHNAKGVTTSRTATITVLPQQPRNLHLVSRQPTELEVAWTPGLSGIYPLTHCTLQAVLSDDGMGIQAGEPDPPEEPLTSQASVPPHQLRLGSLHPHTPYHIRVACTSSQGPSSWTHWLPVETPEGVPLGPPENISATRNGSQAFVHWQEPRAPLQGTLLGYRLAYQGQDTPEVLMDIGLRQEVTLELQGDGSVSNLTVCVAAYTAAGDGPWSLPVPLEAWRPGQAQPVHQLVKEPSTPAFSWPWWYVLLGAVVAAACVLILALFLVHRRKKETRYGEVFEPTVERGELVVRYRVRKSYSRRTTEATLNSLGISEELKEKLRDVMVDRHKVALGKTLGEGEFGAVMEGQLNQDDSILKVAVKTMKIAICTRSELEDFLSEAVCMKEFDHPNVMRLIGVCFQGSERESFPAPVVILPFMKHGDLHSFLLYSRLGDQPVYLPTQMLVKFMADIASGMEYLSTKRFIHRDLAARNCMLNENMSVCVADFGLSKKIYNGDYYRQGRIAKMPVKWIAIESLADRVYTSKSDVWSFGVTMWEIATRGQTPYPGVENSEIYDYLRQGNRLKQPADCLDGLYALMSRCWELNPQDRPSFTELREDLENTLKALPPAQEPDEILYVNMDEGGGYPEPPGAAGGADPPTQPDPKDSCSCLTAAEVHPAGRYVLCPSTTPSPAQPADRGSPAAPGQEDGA
In short: (§1)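 Enzyme, fluorescent peptide substrate and compound were mixed, and the reaction was started with ATP at each kinase's Km, in 50 mM HEPES pH 7.5, 10 mM MgCl2, 1 mM EGTA, 0.01% Brij 35, 1 mM DTT at RT. After 60 minutes EDTA quench, Eu-labelled phospho-specific antibody was added for 30 minutes, and IC50 was derived from TR-FRET signal loss.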

[2] = target: T2, MERTK (Homo sapiens, UniProt Q12866); assay: TR-FRET kinase activity assay, MERTK; assay type: biochemical; conditions: for IC50: TR-FRET activity assay, ATP at Km, 60 minutes, read-out: Mer IC50; for FLT3/Mer ratio (FLT3 IC50/Mer IC50): ratio of Mer to FLT3: FLT3 IC50/Mer IC50
T2 sequence (Q12866 21-999): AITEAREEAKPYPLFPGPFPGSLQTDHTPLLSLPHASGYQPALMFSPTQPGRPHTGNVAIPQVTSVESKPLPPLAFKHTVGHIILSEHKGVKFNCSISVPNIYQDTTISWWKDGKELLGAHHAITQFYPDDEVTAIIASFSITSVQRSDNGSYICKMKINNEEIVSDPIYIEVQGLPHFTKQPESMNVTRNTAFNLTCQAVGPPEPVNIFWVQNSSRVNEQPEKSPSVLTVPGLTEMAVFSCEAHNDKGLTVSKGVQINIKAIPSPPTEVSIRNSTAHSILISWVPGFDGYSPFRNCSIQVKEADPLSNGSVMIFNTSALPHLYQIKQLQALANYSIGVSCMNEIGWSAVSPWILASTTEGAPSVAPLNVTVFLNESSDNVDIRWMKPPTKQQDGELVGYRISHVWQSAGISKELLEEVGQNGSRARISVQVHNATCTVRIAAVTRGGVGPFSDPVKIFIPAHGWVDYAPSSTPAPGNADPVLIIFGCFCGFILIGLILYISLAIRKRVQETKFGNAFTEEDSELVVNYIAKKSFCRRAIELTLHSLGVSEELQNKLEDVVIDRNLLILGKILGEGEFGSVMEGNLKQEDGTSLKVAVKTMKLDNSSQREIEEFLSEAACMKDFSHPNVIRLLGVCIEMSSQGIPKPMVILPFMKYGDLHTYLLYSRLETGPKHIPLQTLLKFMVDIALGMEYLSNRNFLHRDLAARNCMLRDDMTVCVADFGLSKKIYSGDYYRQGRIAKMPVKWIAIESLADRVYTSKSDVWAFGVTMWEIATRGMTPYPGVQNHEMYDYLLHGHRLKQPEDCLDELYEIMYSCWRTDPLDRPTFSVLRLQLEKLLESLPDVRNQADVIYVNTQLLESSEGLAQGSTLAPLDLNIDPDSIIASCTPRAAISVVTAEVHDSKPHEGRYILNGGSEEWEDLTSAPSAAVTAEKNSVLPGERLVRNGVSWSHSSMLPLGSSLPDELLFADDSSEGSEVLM
In short: as §1

Structure (SMILES) | IC50 [1] [µM] | IC50 [2] [µM] | FLT3/Mer ratio (FLT3 IC50/Mer IC50) [2]
C[C@@H](CC(F)(F)F)Nc1ncc2c(-c3cnn([C@@H]4CCOC4)c3)cc([C@H]3CC[C@H](O)CC3)n2n1 [Compound 289] | ≤ 0.1 | ≤ 0.1 | + (“+” represents a ratio of >2.0 and <10)
COC[C@H](C)Nc1ncc2c(-c3cnn(Cc4cncc(C)n4)c3)cc([C@H]3CC[C@H](O)CC3)n2n1 [Compound 329] | ≤ 0.1 | ≤ 0.1 | +++ (“+++” represents a ratio of >100)
COC[C@H](C)Nc1ncc2c(-c3cnn(Cc4ccc(S(C)(=O)=O)cc4)c3)cc([C@H]3CC[C@H](O)CC3)n2n1 [Compound 314] | ≤ 0.1 | ≤ 0.1 | +++ (“+++” represents a ratio of >100)
C[C@@H](CC(F)(F)F)Nc1ncc2c(-c3cnn(CCS(C)(=O)=O)c3)cc([C@H]3CC[C@H](O)CC3)n2n1 [Compound 288] | ≤ 0.1 | ≤ 0.1 | ++ (“++” represents a ratio of between 10 and 100)
CNS(=O)(=O)c1cncc(-c2cc([C@H]3CC[C@H](O)CC3)n3nc(N[C@@H](C)COC(F)F)ncc23)c1 [Compound 275] | ≤ 0.1 | ≤ 0.1 | +++ (“+++” represents a ratio of >100)
COC[C@H](C)Nc1ncc2c(-c3ccnc(OC4CCCN(C)C4)c3)cc([C@H]3CC[C@H](O)CC3)n2n1 (stereo partly drawn) [Compound 341] | ≤ 0.1 | ≤ 0.1 | +++ (“+++” represents a ratio of >100)
COC[C@H](C)Nc1ncc2c(-c3cnn(C(C)(C)C(=O)O)c3)cc([C@H]3CC[C@H](O)CC3)n2n1 [Compound 284] | 0.1 to 1 | ≤ 0.1 | +++ (“+++” represents a ratio of >100)
COC[C@H](C)Nc1ncc2c(-c3cnn(C(C)(C)C(=O)N4C[C@@H](C)O[C@@H](C)C4)c3)cc([C@H]3CC[C@H](O)CC3)n2n1 [Compound 320] | ≤ 0.1 | ≤ 0.1 | +++ (“+++” represents a ratio of >100)
COC[C@H](C)Nc1ncc2c(-c3ccc(S(C)(=O)=O)nc3)cc([C@H]3CC[C@H](O)CC3)n2n1 [Compound 279] | ≤ 0.1 | ≤ 0.1 | +++ (“+++” represents a ratio of >100)
COC[C@H](C)Nc1ncc2c(-c3cnn(Cc4cnccn4)c3)cc([C@H]3CC[C@H](O)CC3)n2n1 [Compound 305] | ≤ 0.1 | ≤ 0.1 | +++ (“+++” represents a ratio of >100)
COC[C@H](C)Nc1ncc2c(-c3cnn(Cc4cc(C)nn4C)c3)cc([C@H]3CC[C@H](O)CC3)n2n1 [Compound 333] | ≤ 0.1 | ≤ 0.1 | +++ (“+++” represents a ratio of >100)
Cc1cc(-c2cc([C@H]3CC[C@H](O)CC3)n3nc(N[C@@H](C)C(F)F)ncc23)ccn1 [Compound 309] | ≤ 0.1 | ≤ 0.1 | +++ (“+++” represents a ratio of >100)
COCCOc1cc(-c2cc([C@H]3CC[C@H](O)CC3)n3nc(N[C@@H](C)COC)ncc23)ccn1 [Compound 345] | ≤ 0.1 | ≤ 0.1 | +++ (“+++” represents a ratio of >100)
CNC(=O)c1ncc(-c2cc([C@H]3CC[C@H](O)CC3)n3nc(N[C@@H](C)COC)ncc23)cn1 [Compound 334] | 0.1 to 1 | ≤ 0.1 | +++ (“+++” represents a ratio of >100)
CCCCC[C@H](C)Nc1ncc2c(N3CCC(C(=O)O)CC3)cc([C@H]3CC[C@H](O)CC3)n2n1 [Compound 117] | 0.1 to 1 | ≤ 0.1 | +++ (“+++” represents a ratio of >100)
COC[C@H](C)Nc1ncc2c(-c3ccnc(NC(C)C)c3)cc([C@H]3CC[C@H](O)CC3)n2n1 [Compound 337] | ≤ 0.1 | ≤ 0.1 | +++ (“+++” represents a ratio of >100)
COCC(C)Nc1ncc2c(-c3cnn(Cc4ccc(=O)n(C)c4)c3)cc(C3CCC(O)CC3)n2n1 (stereo not drawn) [Compound 322] | ≤ 0.1 | ≤ 0.1 | +++ (“+++” represents a ratio of >100)
Cc1cc(-c2cc([C@H]3CC[C@H](O)CC3)n3nc(N[C@@H](C)COC(F)F)ncc23)ccn1 [Compound 313] | ≤ 0.1 | ≤ 0.1 | +++ (“+++” represents a ratio of >100)
COC[C@H](C)Nc1ncc2c(-c3cnn(C(C)(C)C(=O)N4C[C@H](C)O[C@@H](C)C4)c3)cc([C@H]3CC[C@H](O)CC3)n2n1 [Compound 328] | ≤ 0.1 | ≤ 0.1 | +++ (“+++” represents a ratio of >100)
COC[C@H](C)Nc1ncc2c(-c3ccnc(N4CCCC4)c3)cc([C@H]3CC[C@H](O)CC3)n2n1 [Compound 339] | ≤ 0.1 | ≤ 0.1 | +++ (“+++” represents a ratio of >100)
COC[C@H](C)Nc1ncc2c(-c3cnn(C(C)(C)C(=O)N4CCC4)c3)cc([C@H]3CC[C@H](O)CC3)n2n1 [Compound 283] | ≤ 0.1 | ≤ 0.1 | +++ (“+++” represents a ratio of >100)
COC[C@H](C)Nc1ncc2c(-c3cnn(Cc4nnc(C)o4)c3)cc([C@H]3CC[C@H](O)CC3)n2n1 [Compound 277] | ≤ 0.1 | ≤ 0.1 | +++ (“+++” represents a ratio of >100)
C[C@@H](CC(F)(F)F)Nc1ncc2c(-c3cncc(C(=O)N(C)C)c3)cc([C@H]3CC[C@H](O)CC3)n2n1 [Compound 310] | ≤ 0.1 | ≤ 0.1 | +++ (“+++” represents a ratio of >100)
C[C@@H](CC(F)(F)F)Nc1ncc2c(-c3cn[nH]c3)cc([C@H]3CC[C@H](O)CC3)n2n1 [Compound 276] | ≤ 0.1 | ≤ 0.1 | +++ (“+++” represents a ratio of >100)
